Where “and” joins values, the source holds several entries; their conditions need not be identical. Equal values may be shown once. Where a name gives a salt, the structure may show the parent alone.

What is called IC50 is the point on the concentration scale where inhibition reaches its midpoint. The low end stands for greater potency in that assay, the high end for weaker potency in that assay.

Assay [1] has as its target T1, γ-secretase (Notch cleavage activity) (Homo sapiens, UniProt P49768).
T1 construct: endogenous in cells; host or cells: SUP-T1 cells
Nature of the assay: Cleaved Notch1 Sandwich ELISA (SUP-T1 cell line). The conditions noted are these: for IC50: SUP-T1 cells, 16 h; for Notch Elisa/Aβ42: ratio Notch Elisa IC50 to Aβ42 IC50. In kind it is cell-based. The method, then:
Cleaved Notch1 Sandwich ELISA.
This assay was used to determine if the compounds of interest inhibit the Notch cleavage activity of γ-secretase in SUP-T1 cell line, which endogenously expresses a truncated Notch receptor fragment that is a viable gamma-secretase substrate. The base medium for this cell line is ATCC-formulated RPMI-1640 Medium with fetal bovine serum to a final concentration of 10%. Prepare dilution of SUP-T1 cells in complete growth medium to 1.0×10^6 cells/mL, seed 1.5 mL per well of each cell dilution into a 6-well plate. Collect cells treated with serial diluted compounds in DMSO after 16 h, then using equal amount of protein isolated from samples to measure Notch intracellular cleavage by PathScan® Sandwich ELISA Kit (Cell Signaling Tech 7194S).
(In general: In an ELISA, binding on a coated surface is turned into a signal by an enzyme label.)

In assay [2] the target is T2, γ-secretase (cleavage of APP, Aβ42) (Homo sapiens, UniProt P49768).
T2 construct: endogenous in cells; host or cells: HEK AP-GL-T16 luciferase reporter cells (tetracycline-induced APP substrate)
Nature of the assay: Aβ (1-42) cellular assay (Aβ ELISA, HEK AP-GL-T1 6 cells). In kind it is cell-based. The following applies: for IC50: cellular Aβ42 ELISA, 24 h compound treatment; for inhibition at 1 µM: at 1 μM (concentration in brackets). The method, then: Aβ (1-42) Cellular Assay.
The following assay was used to determine the extent to which the compounds of interest inhibit the cleavage of APP in vivo. AβELISA is a commercial fluorometric kit from Biosource (Invitrogen 89344). Luciferase reporter HEK AP-GL-T1 6 cells were plated at 50,000 cells/well in 96 well plates in DMEM media containing 10% tetracyclin free […], 250 μg/mL zeocin, 200 μg/mL hygromycin, and 5 μg/mL blasticidin. Compounds were added 24 h after plating and APP processing is induced simultaneously by addition of tetracycline. Following a 24 h compound treatment, […] of conditioned cell media is collected, mixed with ELISA diluent buffer containing 2 mM AEBSF and 12 mM o-phenanthroline, and immediately frozen at −80° C. For the ELISA, the samples were brought to room temperature and spun at 5000 rpm for 5 min. Samples ([…]) are incubated in the ELISA plate with […] detection antibody on a shaker at room temperature for 3 h. Wells were then washed 4 times with wash buffer and 100 mL of secondary antibody are added and incubated at room temperature for 30 min. Wells were again washed 4 times with wash buffer and 100 mL of fluorescent substrate solution are added. After 30 minutes of incubation, fluorescent signals are determine on a Gemini reader at ex 460 nm and em 560 nm. The amount of Aβ levels in each sample was determined from a standard curve generated by known concentrations of Aβ peptide run simultaneously with the samples.

With `O=C(O)c1ccc(CN(C2CCCC(C(F)(F)F)C2)S(=O)(=O)c2ccc(Cl)cc2)cc1` (single isomer, unassigned) [Example 52, 4-((4-Chloro-N-(3-(trifluoromethyl)cyclohexyl)phenylsulfonamido)methyl)benzoic acid], the IC50 was 1880 nM in assay [1] and 47.6 nM in assay [2]. For the same compound, the “Notch Elisa/Aβ42” value in assay [1] (listed as 52/1227C) is reported as 40.
As for `O=C(O)c1ccc(CN(C2CCCC(C(F)(F)F)C2)S(=O)(=O)c2ccc(Cl)cc2)cc1` (single isomer, unassigned) [Example 53, 4-((4-Chloro-N-(3-(trifluoromethyl)cyclohexyl)phenylsulfonamido)methyl)benzoic acid], the IC50 stood at 34800 nM in assay [1] and 1190 nM in assay [2]. Besides, the “Notch Elisa/Aβ42” value in assay [1] (listed as 53/1227D) was 29.
With `COC(=O)c1cc(CN(C2CCOCC2)S(=O)(=O)c2ccc(Cl)cc2)ccc1OC` [Example 7, Methyl 5-((4-chloro-N-(tetrahydro-2H-pyran-4-yl)phenylsulfonamido)methyl)-2-methoxybenzoate], the inhibition at 1 µM in assay [2] (read-out: Aβ42 % Inh) came to 0%.
On the same count and under the same terms, the value for `COC(=O)c1ccc(CN(C2CCOCC2)S(=O)(=O)c2ccc(Cl)cc2)cc1` [Example 12, Methyl 4-((4-chloro-N-(tetrahydro-2H-pyran-4-yl)phenylsulfonamido)methyl)-benzoate] was 0%.
In the case of `CC1CCCCC1N(Cc1ccc(C(=O)NCCN2CCCC2)cc1)S(=O)(=O)c1ccc(Cl)cc1` (centres unmarked) [Example 38, 4-((4-Chloro-N-(2-methylcyclohexyl)phenylsulfonamido)methyl)-N-(2-(pyrrolidin-1-yl)ethyl)benzamide], in assay [1], the IC50 turned out to be 667 nM and the “Notch Elisa/Aβ42” value amounted to 64. Moreover, the IC50 in assay [2] is 8.3 nM and 12.8 nM.
As to `CCN(CCN1CCCC1)C(=O)c1ccc(CN(C2CCCCC2C)S(=O)(=O)c2ccc(Cl)cc2)cc1` (centres unmarked) [Example 39, 4-((4-Chloro-N-(2-methylcyclohexyl)phenylsulfonamido)methyl)-N-ethyl-N-(2-(pyrrolidin-1-yl)ethyl)benzamide], in assay [1], half-maximal inhibition (IC50) was put at 2260 nM and the “Notch Elisa/Aβ42” value turned out to be 38. In addition, the half-maximal inhibitory concentration (IC50) in assay [2] is 40.7 nM and 77.4 nM.
For the compound `CC1CCCCC1N(Cc1ccc(C(=O)NCCN(C)C)cc1)S(=O)(=O)c1ccc(Cl)cc1` (centres unmarked) [Example 41, 4-((4-Chloro-N-(2-methylcyclohexyl)phenylsulfonamido)methyl)-N-(2-(dimethylamino)ethyl)benzamide hydrochloride], in assay [1], the half-maximal inhibitory concentration (IC50) was 675 nM and 850 nM; the “Notch Elisa/Aβ42” value stood at 91. Moreover, in assay [2], the IC50 is 5.8 nM and 10.9 nM.
`COC(=O)c1ccc(CN(C2CCCC(C)C2)S(=O)(=O)c2ccc(Cl)cc2)cc1` (centres unmarked) [Example 42, Methyl 4-((4-chloro-N-(3-methylcyclohexyl)phenylsulfonamido)methyl)benzoate] yielded a half-inhibitory concentration (IC50) in assay [2] of 9.44 nM.
As to `CC1CCCC(N(Cc2ccc(C(=O)O)cc2)S(=O)(=O)c2ccc(Cl)cc2)C1` (centres unmarked) [Example 43, 4-((4-Chloro-N-(3-methylcyclohexyl)phenylsulfonamido)methyl)benzoic acid], in assay [1], the IC50 was 2820 nM and 2730 nM; the “Notch Elisa/Aβ42” value was determined as 19. In addition, the concentration for half-maximal inhibition (IC50) in assay [2] came out at 148 nM.
Turning to `CC1CCCCC1N(Cc1ccc(C(=O)O)cc1)S(=O)(=O)c1ccc(Cl)nc1` (centres unmarked) [Example 44, 4-((6-Chloro-N-(2-methylcyclohexyl)pyridine-3-sulfonamido)methyl)benzoic acid], in assay [1], the IC50 is 2980 nM and 2730 nM; the “Notch Elisa/Aβ42” value turned out to be 220. For the same compound, the IC50 in assay [2] was 6.4 nM and 20 nM.
On to `COC(=O)c1ccc(CN(C2CCCC(C(F)(F)F)C2)S(=O)(=O)c2ccc(Cl)cc2)cc1` (centres unmarked) [Example 49, Methyl 4-((4-chloro-N-(3-(trifluoromethyl)cyclohexyl)phenylsulfonamido)methyl)benzoate], for which the IC50 in assay [2] worked out at 7.3 nM.
As for `COC(=O)c1ccc(CN(C2CCCCC2F)S(=O)(=O)c2ccc(Cl)cc2)cc1` (centres unmarked) [Example 56, Methyl 4-((4-chloro-N-(2-fluorocyclohexyl)phenylsulfonamido)methyl)benzoate], 4.05 nM corresponded to half-maximal inhibition in assay [2] (IC50).
As to `COC(=O)c1ccc(CN(C2CCCCC2F)S(=O)(=O)c2ccc(Cl)nc2)cc1` (centres unmarked) [Example 61, Methyl 4-((6-chloro-N-(2-fluorocyclohexyl)pyridine-3-sulfonamido)methyl)benzoate], the midpoint of inhibition in assay [2], the IC50, lay at 10.4 nM.
Take `O=C(O)c1ccc(CN(C2CCCC(C(F)(F)F)C2)S(=O)(=O)c2ccc(Cl)nc2)cc1` (centres unmarked) [Example 63, 4-((6-Chloro-N-(3-(trifluoromethyl)cyclohexyl)pyridine-3-sulfonamido)methyl)benzoic acid]: the inhibition at 1 µM in assay [2] (read-out: Aβ42 % Inh) came out at 87%.
`COC(=O)c1ccc(CN(C2CCCC(C(F)(F)F)C2)S(=O)(=O)c2ccc(Cl)nc2)cc1` (centres unmarked) [Example 70, Methyl 4-((6-chloro-N-(3-(trifluoromethyl)cyclohexyl)pyridine-3-sulfonamido)methyl)benzoate] showed a half-inhibitory concentration (IC50) in assay [2] of 26.8 nM.
Turning to `O=C(O)CNC(=O)c1ccc(CN(C2CCCCC2F)S(=O)(=O)c2ccc(Cl)cc2)cc1` (centres unmarked) [Example 79, 2-(4-((4-Chloro-N-(2-fluorocyclohexyl)phenylsulfonamido)methyl)benzamido)acetic acid], the IC50 in assay [2] came to 3620 nM.
Take `CN(C)CCNC(=O)c1ccc(CN(C2CCCCC2F)S(=O)(=O)c2ccc(Cl)nc2)cc1` (centres unmarked) [Example 80, 4-((6-Chloro-N-(2-fluorocyclohexyl)pyridine-3-sulfonamido)methyl)-N-(2-(dimethylamino)ethyl)benzamide hydrochloride]: in assay [2] (read-out: Aβ42 % Inh), the inhibition at 1 µM stood at 65%.
In the case of `O=C(O)c1ccc(CN(C2CCC(F)CC2)S(=O)(=O)c2ccc(Cl)cc2)cc1` (centres unmarked) [Example 82, 4-((4-Chloro-N-(4-fluorocyclohexyl)phenylsulfonamido)methyl)benzoic acid], in assay [2] (at 30 μM (concentration in brackets), read-out: Aβ42 % Inh), the inhibition at 30 µM is 0%.
Compound `O=C(O)c1ccc(CN([C@@H]2CCCC[C@H]2F)S(=O)(=O)c2ccc(Cl)cc2)cc1` [Example 84, 4-((4-Chloro-N-((1R,2R)-2-fluorocyclohexyl)phenylsulfonamido)methyl)benzoic acid] showed a half-inhibitory concentration (IC50) in assay [2] of 141 nM.
In turn, `COC[C@H](C)NC(=O)c1ccc(CN(C2CCCCC2F)S(=O)(=O)c2ccc(Cl)cc2)cc1` (stereo partly drawn) [Example 86, 4-((4-Chloro-N-(2-fluorocyclohexyl)phenylsulfonamido)methyl)-N—((S)-1-methoxypropan-2-yl)benzamide] yielded an IC50 in assay [2] of 103 nM.
On to `O=C(NCCN1CCCC1)c1ccc(CN(C2CCCCC2F)S(=O)(=O)c2ccc(Cl)cc2)cc1` (centres unmarked) [Example 87, 4-((4-Chloro-N-(2-fluorocyclohexyl)phenylsulfonamido)methyl)-N-(2-(pyrrolidin-1-yl)ethyl)benzamide], for which the half-maximal inhibitory concentration (IC50) in assay [2] is 6.91 nM.
`COC[C@@H](C)NC(=O)c1ccc(CN(C2CCCCC2F)S(=O)(=O)c2ccc(Cl)cc2)cc1` (stereo partly drawn) [Example 88, 4-((4-Chloro-N-(2-fluorocyclohexyl)phenylsulfonamido)methyl)-N-((R)-1-methoxypropan-2-yl)benzamide] yielded a half-maximal inhibitory concentration (IC50) in assay [2] of 7.31 nM.
Regarding `C[C@@H](CO)NC(=O)c1ccc(CN(C2CCCCC2F)S(=O)(=O)c2ccc(Cl)cc2)cc1` (stereo partly drawn) [Example 89, 4-((4-Chloro-N-(2-fluorocyclohexyl)phenylsulfonamido)methyl)-N—((S)-1-hydroxypropan-2-yl)benzamide], the IC50 in assay [2] stood at 35.4 nM.
The compound “Methyl 3-(4-((4-chloro-N-(2-methylcyclohexyl)phenylsulfonamido)methyl)benzamido)propanoate [Example 35]” gave a concentration for half-maximal inhibition (IC50) in assay [2] of 29.7 nM.

The record behind these values is US20140243374A1, “Novel Sulfonamides” (The Brigham and Women's Hospital, Inc., priority 2011, published 2014).
